Patent publication US10144726B2, “Modulators of the p70S6 kinase for use in the treatment of brain disorders and triple-negative breast cancer” (SENTINEL ONCOLOGY LIMITED, priority 2015, dated 2018)

Experiments:
[1] = tested on: phosphorylation of S6 Ser235/236 in MCF-7 cells; experiment: MCF-7 pS6 ELISA (phosphorylation of S6 Ser235/236); type: cell-based; settings: Homo sapiens, MCF7; S6 Ser235/236, 1% FBS, 2 h; read-out: (b) MCF-7 pS6 ELISA IC50
Procedure: The following assay provides IC50 values for inhibition of P70S6K activity in a whole cell assay by determining effects on the phosphorylation of S6^Ser235/236 in MCF-7 cells by ELISA.
The following protocol was used: • 1) MCF-7 cells were seeded in 96-well plates at a density of 7000 cells per well and allowed to adhere for 6 h in media containing 10% FBS. • 2) The full serum media was replaced and cells incubated overnight in media containing 1% FBS, prior to addition of test compounds. • 3) Test compounds were prepared from 10 mM DMSO stocks to give final concentration ranges as indicated on graphs. DMSO was constant at a final concentration of 1%. • 4) Test compounds were incubated with cells in duplicate for 2 h at 37° C/5% CO2 in a humidified atmosphere. • 5) The media was removed and cells were lysed by freeze-thawing in cell lysis buffer. • 6) Detection of phosphorylated S6Ser235/236 was then carried out using a PathScan ELISA kit (Cell Signaling Technology #7205). • 7) Lysates were diluted 1:1 with sample diluent before being applied to wells coated with an antibody against phosphorylated-S6 protein. • 8) The ELISA was then performed as stated in the manufacturers' instructions. • 9) The raw data were normalised to control values and analysed using a 4-parameter logistic equation in GraphPad Prism.

p70S6K (h) = p70S6K (h) (Homo sapiens, UniProt P23443); experiment: Determination of p70S6 inhibitory activity (radiometric kinase assay); type: biochemical; settings: read-out: (a) p70S6K1 IC50
Chain of p70S6K (h) (P23443 whole entry): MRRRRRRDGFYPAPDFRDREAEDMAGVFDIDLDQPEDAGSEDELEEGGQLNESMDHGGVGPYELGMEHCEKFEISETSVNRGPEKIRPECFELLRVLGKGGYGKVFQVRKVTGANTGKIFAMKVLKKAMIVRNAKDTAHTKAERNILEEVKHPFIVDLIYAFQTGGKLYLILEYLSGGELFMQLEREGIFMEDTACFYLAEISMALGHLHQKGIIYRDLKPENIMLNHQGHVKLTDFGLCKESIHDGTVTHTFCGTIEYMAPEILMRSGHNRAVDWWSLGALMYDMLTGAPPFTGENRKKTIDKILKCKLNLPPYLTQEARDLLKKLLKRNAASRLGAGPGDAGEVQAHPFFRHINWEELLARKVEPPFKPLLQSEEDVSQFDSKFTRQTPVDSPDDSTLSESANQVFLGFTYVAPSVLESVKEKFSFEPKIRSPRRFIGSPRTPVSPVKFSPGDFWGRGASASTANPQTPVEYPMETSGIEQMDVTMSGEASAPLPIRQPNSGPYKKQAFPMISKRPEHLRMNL
Procedure: The ability of compounds of the invention to inhibit P70S6 kinase was determined using the protocol below.
20 mM MOPS, 1 mM EDTA, 0.01% Brij-35, 5% Glycerol, 0.1% b-mercaptoethanol, 1 mg/mL BSA
In a final reaction volume of 25 μL, p70S6K (h) (5-10 mU) is incubated with 8 mM MOPS pH 7.0, 0.2 mM EDTA, 100 μM KKRNRTLTV, 10 mM Mg acetate and [γ-33P-ATP] (specific activity approx. 500 cpm/pmol, concentration as required). The reaction is initiated by the addition of the MgATP mix. After incubation for 40 minutes at room temperature, the reaction is stopped by the addition of 5 μL of a 3% phosphoric acid solution. 10 μL of the reaction mixture is then spotted onto a P30 filtermat and washed three times for 5 minutes in 75 mM phosphoric acid and once in methanol prior to drying and scintillation counting.

[2] = tested on: audiogenic seizures in FXS (Fmr1 KO) mice; experiment: Audiogenic seizure assay, in vivo model of Fragile X Syndrome; design: species or system FVB background; settings: 25 mg/kg QD × 7 PO
From the text: Seizures occur in conjunction with FXS and autism in up to one-quarter of children with these disorders (Berry-Kravis E (2002) Epilepsy in fragile X syndrome. Dev. Med. Child Neurol. 44(11):724-728). […] The audiogenic seizure assay (AGS) is a well documented mouse model of FXS (Audiogenic seizures susceptibility in transgenic mice with fragile X syndrome, Epilepsia. 2000 January; 41(1):19-23). In such a model it is possible to dose compounds to observe effects on susceptibility of the mice to audiogenic seizures. The following AGS experiment was set up to test the efficacy of compounds of this application:
Strain of FXS Mouse Used: FVB Background
Vehicle used: 10% DMSO/90% hydroxypropyl-β-cyclodextrin (20% w/v aqueous)
Animals were assessed in AGS following 7 consecutive days of dosing.
The experimental chamber consisted of a plastic cage of dimensions 25×25×47 cm in which a doorbell (Electrical bell Heath Zenith, model 172C-A) had been mounted on the cage roof.
Mice were taken from their housing room one by one and transferred into the experimental chamber and allowed to explore the novel environment (basal noise ˜65 dB) for a period of 30 seconds after which point the bell was rung (124 dB).
The resulting motor responses were classified using a scale modified from the one originally described by Jobe et al. (1973): no response (NR: pause or continuous exploration), wild running (WR), clonic seizure (CS), tonic seizure (TS), respiratory arrest and/or death (RA). In order to define the intensity of the behavioral response a seizure severity score was used (SSS) (Musumeci et al., 2000), consisting of a score assigned to each animal depending on its behavioral response (NR=0, WR=1, CS=2, TS=3, RA=4). To determine the SSS for a treatment group the scores of the individual mice are summed. The motor response rate is defined as the percentage of animals per group responding to the stimulus.

C[C@@H](Nc1cnc2cc(-c3cn[nH]c3)ccc2n1)c1cccc(Cl)c1 [Example 15]
IC50 [1]: 500 nM
IC50 (p70S6K (h)): 6 nM
CS (clonic seizure), number of animals [2]: 0
NR (no response), number of animals [2]: 6
RA (respiratory arrest and/or death), number of animals [2]: 0
SSS (seizure severity score, summed for the group) [2]: 2
TS (tonic seizure), number of animals [2]: 0
WR (wild running), number of animals [2]: 2
Incidence of audiogenic seizures and severity of response ([2]; vs vehicle, p<0.01 by Fisher's test): reduced
